Laboratory results: US9708314B2, “Heterocyclic amide compound” (NISSAN CHEMICAL INDUSTRIES, LTD., priority 2013, dated 2017)

How the values were obtained:
Assay in all cases: Test Example 1: herbicidal activity, application before weed generation in submerged conditions
Format in all cases: in vivo
Scirpus juncoides = settings: Seventeenth Table; for B: Scirpus juncoides (herbicidal effect grade): Application herbicide amount 320 g/ha
In short: (§1)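 Water-diluted emulsion formulation is applied onto flood water (4 cm deep) covering alluvial soil on the day weed seeds are sown, after transplanting 2.5 leaf stage rice. Rates are expressed per hectare. Injury or control is graded 0–5 three weeks later.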

Monochoria vaginalis = settings: Application herbicide amount 320 g/ha; Seventeenth Table
In short: as §1

[1] = test system: Echinochloa oryzacola Vasing.; settings: Seventeenth Table; for A: Echinochloa oryzicola Vasing. (herbicidal effect grade): Application herbicide amount 320 g/ha
In short: as §1

[2] = application herbicide amount 260 g/ha

Row | SMILES | B: Scirpus juncoides (herbicidal effect grade) (Scirpus juncoides) | C: Monochoria vaginalis (herbicidal effect grade) (Monochoria vaginalis) | A: Echinochloa oryzicola Vasing. (herbicidal effect grade) [1] | B (Scirpus juncoides) herbicidal ratio grade (Scirpus juncoides; [2]) | A (Echinochloa oryzicola Vasing.) herbicidal ratio grade [1, 2]
1 | Cc1nnc(NC(=O)c2ccc(C(F)(F)F)n3c(SC4CCCC4)nnc23)o1 [1-154] | 3 (Herbicidal ratio of 40% or more and less than 70%) | 2 (Herbicidal ratio of 20% or more and less than 40%) | – | – | –
2 | O=C(Nc1nnco1)c1ccc(C(F)(F)F)n2c(SC3CCCC3)nnc12 [1-155] | 4 (Herbicidal ratio of 70% or more and less than 90%) | 3 (Herbicidal ratio of 40% or more and less than 70%) | – | – | –
3 | Cc1nnc(NC(=O)c2ccc(C(F)(F)F)n3c(SCc4ccc(Cl)nc4)nnc23)o1 [1-156] | 2 (Herbicidal ratio of 20% or more and less than 40%) | 0 (Herbicidal ratio of 5% or less (almost no effect)) | – | – | –
4 | O=C(Nc1nnco1)c1ccc(C(F)(F)F)n2c(SCc3ccc(Cl)nc3)nnc12 [1-157] | 3 (Herbicidal ratio of 40% or more and less than 70%) | 2 (Herbicidal ratio of 20% or more and less than 40%) | – | – | –
5 | COc1ccc(N(C)c2nnc3c(C(=O)Nc4nnco4)ccc(C(F)(F)F)n23)cc1 [1-171] | 4 (Herbicidal ratio of 70% or more and less than 90%) | 4 (Herbicidal ratio of 70% or more and less than 90%) | 5 (Herbicidal ratio of 90% or more (almost completely withered)) | – | –
6 | C=CCN(C)c1nnc2c(C(=O)Nc3nnco3)ccc(C(F)(F)F)n12 [1-172] | 4 (Herbicidal ratio of 70% or more and less than 90%) | 3 (Herbicidal ratio of 40% or more and less than 70%) | 5 (Herbicidal ratio of 90% or more (almost completely withered)) | – | –
7 | Cn1nnnc1NC(=O)c1ccc(C(F)(F)F)n2cnnc12 [2-001] | 3 (Herbicidal ratio of 40% or more and less than 70%) | 4 (Herbicidal ratio of 70% or more and less than 90%) | 2 (Herbicidal ratio of 20% or more and less than 40%) | – | –
8 | Cc1nnc2c(C(=O)Nc3nnnn3C)ccc(C(F)(F)F)n12 [2-002] | 3 (Herbicidal ratio of 40% or more and less than 70%) | 3 (Herbicidal ratio of 40% or more and less than 70%) | 2 (Herbicidal ratio of 20% or more and less than 40%) | – | –
9 | CC(C)c1nnc2c(C(=O)Nc3nnnn3C)ccc(C(F)(F)F)n12 [2-003] | 5 (Herbicidal ratio of 90% or more (almost completely withered)) | 5 (Herbicidal ratio of 90% or more (almost completely withered)) | 5 (Herbicidal ratio of 90% or more (almost completely withered)) | – | –
10 | Cn1nnnc1NC(=O)c1ccc(C(F)(F)F)n2c(CS(C)(=O)=O)nnc12 [2-034] | 4 (Herbicidal ratio of 70% or more and less than 90%) | 4 (Herbicidal ratio of 70% or more and less than 90%) | 5 (Herbicidal ratio of 90% or more (almost completely withered)) | – | –
11 | Cn1nnnc1NC(=O)c1ccc(C(F)(F)F)n2c(C[S+]([O-])CC(F)(F)F)nnc12 (centres unmarked) [2-035] | 3 (Herbicidal ratio of 40% or more and less than 70%) | 3 (Herbicidal ratio of 40% or more and less than 70%) | 4 (Herbicidal ratio of 70% or more and less than 90%) | – | –
12 | Cn1nnnc1NC(=O)c1ccc(C(F)(F)F)n2c(S(C)(=O)=O)nnc12 [2-037] | 5 (Herbicidal ratio of 90% or more (almost completely withered)) | 5 (Herbicidal ratio of 90% or more (almost completely withered)) | 5 (Herbicidal ratio of 90% or more (almost completely withered)) | – | –
13 | CCS(=O)(=O)c1nnc2c(C(=O)Nc3nnnn3C)ccc(C(F)(F)F)n12 [2-038] | 5 (Herbicidal ratio of 90% or more (almost completely withered)) | 5 (Herbicidal ratio of 90% or more (almost completely withered)) | 5 (Herbicidal ratio of 90% or more (almost completely withered)) | – | –
14 | CCOC(=O)Cc1nnc2c(C(=O)Nc3nnnn3C)ccc(C(F)(F)F)n12 [2-040] | 4 (Herbicidal ratio of 70% or more and less than 90%) | 4 (Herbicidal ratio of 70% or more and less than 90%) | 4 (Herbicidal ratio of 70% or more and less than 90%) | – | –
15 | COCCn1nnnc1NC(=O)c1ccc(C(F)(F)F)n2c(C(C)C)nnc12 [2-041] | 5 (Herbicidal ratio of 90% or more (almost completely withered)) | 4 (Herbicidal ratio of 70% or more and less than 90%) | 5 (Herbicidal ratio of 90% or more (almost completely withered)) | – | –
16 | Cc1ccc(-c2nnc3c(C(=O)Nc4nnnn4C)ccc(C(F)(F)F)n23)cc1 [2-042] | 4 (Herbicidal ratio of 70% or more and less than 90%) | 4 (Herbicidal ratio of 70% or more and less than 90%) | 5 (Herbicidal ratio of 90% or more (almost completely withered)) | – | –
17 | Cn1nnnc1NC(=O)c1ccc(C(F)(F)F)n2c(-c3ccc(F)cc3)nnc12 [2-043] | 5 (Herbicidal ratio of 90% or more (almost completely withered)) | 5 (Herbicidal ratio of 90% or more (almost completely withered)) | 5 (Herbicidal ratio of 90% or more (almost completely withered)) | – | –
18 | COc1cccc(-c2nnc3c(C(=O)Nc4nnnn4C)ccc(C(F)(F)F)n23)c1 [2-044] | 5 (Herbicidal ratio of 90% or more (almost completely withered)) | 5 (Herbicidal ratio of 90% or more (almost completely withered)) | 5 (Herbicidal ratio of 90% or more (almost completely withered)) | – | –
19 | COc1ccccc1-c1nnc2c(C(=O)Nc3nnnn3C)ccc(C(F)(F)F)n12 [2-045] | 5 (Herbicidal ratio of 90% or more (almost completely withered)) | 5 (Herbicidal ratio of 90% or more (almost completely withered)) | 5 (Herbicidal ratio of 90% or more (almost completely withered)) | – | –
20 | COc1cc(OC)cc(-c2nnc3c(C(=O)Nc4nnnn4C)ccc(C(F)(F)F)n23)c1 [2-063] | – | 5 (Herbicidal ratio of 90% or more (almost completely withered)) | 5 (Herbicidal ratio of 90% or more (almost completely withered)) | – | –
21 | Cn1nnnc1NC(=O)c1ccc(C(F)(F)F)n2c(-c3cc(Cl)cc(Cl)c3)nnc12 [2-064] | – | 2 (Herbicidal ratio of 20% or more and less than 40%) | 5 (Herbicidal ratio of 90% or more (almost completely withered)) | – | –
22 | Cn1nnnc1NC(=O)c1ccc(C(F)(F)F)n2c(C=O)nnc12 [2-109] | – | – | – | 3 (Herbicidal ratio of 40% or more and less than 70%) | 2 (Herbicidal ratio of 20% or more and less than 40%)
